# Target: human PCSK9 (Homo sapiens, UniProt Q8NBP7)
# Test: PCSK9 ligand binding assay (TR-FRET): interference with binding of human PCSK9 to human LDLR
# Conditions: for IC50: Human PCSK9 Alexa Fluor 647 / Human LDLR extracellular domain-Europium Kryptate; for Max % inhibition: efficacy (Amax), 100% = 1 uM unlabeled human PCSK9, 0% = DMSO
# Procedure, shortened: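 Read-out was TR-FRET ratio (665 nm over 615 nm, 330 nm excitation) between Alexa Fluor 647-human PCSK9 (16 nM added) and Europium Kryptate-human LDLR ectodomain (4 nM added). Compound and PCSK9 were mixed 30 min before LDLR, then incubated 2 h. Inhibition was normalised to DMSO and unlabelled-PCSK9 controls, giving IC50 and Amax.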
# Sequence of human PCSK9 (Q8NBP7 153-692): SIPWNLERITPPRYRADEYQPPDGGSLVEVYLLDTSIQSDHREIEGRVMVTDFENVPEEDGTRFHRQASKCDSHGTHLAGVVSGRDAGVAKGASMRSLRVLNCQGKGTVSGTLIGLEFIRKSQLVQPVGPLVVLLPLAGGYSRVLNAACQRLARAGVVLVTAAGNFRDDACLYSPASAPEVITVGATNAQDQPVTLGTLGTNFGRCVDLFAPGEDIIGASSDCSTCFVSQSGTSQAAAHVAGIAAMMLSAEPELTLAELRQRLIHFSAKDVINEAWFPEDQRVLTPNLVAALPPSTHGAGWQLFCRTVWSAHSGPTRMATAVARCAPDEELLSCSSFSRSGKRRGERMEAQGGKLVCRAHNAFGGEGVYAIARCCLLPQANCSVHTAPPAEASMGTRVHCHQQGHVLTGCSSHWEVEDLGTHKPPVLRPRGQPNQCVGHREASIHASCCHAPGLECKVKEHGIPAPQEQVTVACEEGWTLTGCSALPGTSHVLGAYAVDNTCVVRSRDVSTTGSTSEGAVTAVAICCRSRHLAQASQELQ
# Sequence of human PCSK9 (Q8NBP7 31-152 partner limits assumed): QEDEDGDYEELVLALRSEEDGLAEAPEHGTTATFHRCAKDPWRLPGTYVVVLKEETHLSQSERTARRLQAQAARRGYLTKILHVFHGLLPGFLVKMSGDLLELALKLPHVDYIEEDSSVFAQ
Compound,IC50,Max % inhibition
"C[C@H]1C(=O)N[C@@H](CO)C(=O)N(C)[C@@]2(Cc3ccc(Cl)cc3)CCCN(C2)C(=O)[C@H](Cc2c(F)cc(F)cc2F)CC(=O)N1Cc1ccc(Cl)cc1Oc1ccc(-c2cnc(CN(C)C)n2C)cc1 [Compound 37, (3R, 7S, 10S, 13R)-6-(4-chloro-2-(4-(2-((dimethylamino)methyl)-1-methyl-1H-imidazol-5-yl)phenoxy)benzyl)-13-(4-chlorobenzyl)-10-(hydroxymethyl)-7,12-dimethyl-3-(2,4,6-trifluorobenzyl)-1,6,9,12-tetraazabicyclo[11.3.1]heptadecane-2,5,8,11-tetraone]",0.445 nM,112.0%
"COC[C@@H]1NC(=O)[C@H](C)N(Cc2ccc(Cl)cc2Oc2ccc(-c3cnc(CN(C)C)n3C)cc2)C(=O)C[C@@H](Cc2cccc(C)n2)C(=O)N2CCC[C@@](Cc3ccc(Cl)cc3)(C2)N(C)C1=O [Compound 38, (3R, 7S, 10S, 13R)-6-(4-chloro-2-(4-(2-((dimethylamino)methyl)-1-methyl-1H-imidazol-5-yl)phenoxy)benzyl)-13-(4-chlorobenzyl)-10-(methoxymethyl)-7,12-dimethyl-3-((6-methylpyridin-2-yl)methyl)-1,6,9,12-tetraazabicyclo[11.3.1]heptadecane-2,5,8,11-tetraone]",0.715 nM,106.4%
"COC[C@@H]1NC(=O)[C@H](C)N(Cc2c(F)cc(Cl)cc2Oc2ccc(-n3cnc(CN4CCCC4)c3C)cc2)C(=O)C[C@@H](Cc2ccccc2)C(=O)N2CCC[C@@](Cc3ccc(Cl)cc3)(C2)NC1=O [Compound 39, (3R, 7S, 10S, 13R)-3-benzyl-6-(4-chloro-2-fluoro-6-(4-(5-methyl-4-(pyrrolidin-1-ylmethyl)-1H-imidazol-1-yl)phenoxy)benzyl)-13-(4-chlorobenzyl)-10-(methoxymethyl)-7-methyl-1,6,9,12-tetraazabicyclo[11.3.1]heptadecane-2,5,8,11-tetraone]",0.383 nM,113.2%
"C/C=C/C[C@@H]1CC(=O)N(Cc2ccc(Cl)cc2Oc2ccc(-c3cnc(CN(C)C)n3C)cc2)[C@@H](C)C(=O)N[C@@H](CO)C(=O)N[C@@]2(Cc3ccc(Cl)cc3)CCCN(C2)C1=O [Compound 40, (3R,7S,10S,13R)-3-((E)-but-2-en-1-yl)-6-(4-Chloro-2-(4-(2-((dimethylamino)methyl)-1-methyl-1H-imidazol-5-yl)phenoxy)benzyl)-13-(4-chlorobenzyl)-10-(hydroxymethyl)-7-methyl-1,6,9,12-tetraazabicyclo[11.3.1]heptadecane-2,5,8,11-tetraone]",0.6 nM,107.8%
"Cc1cccc(C[C@@H]2CC(=O)N(Cc3ccc(Cl)cc3Oc3ccc(-c4cnc(CN(C)C)n4C)cc3)[C@@H](C)C(=O)N[C@@H](CO)C(=O)N[C@@]3(Cc4ccc(Cl)cc4)CCCN(C3)C2=O)n1 [Compound 41, (3R, 7S, 10S, 13R)-6-(4-chloro-2-(4-(2-((dimethylamino)methyl)-1-methyl-1H-imidazol-5-yl)phenoxy)benzyl)-13-(4-chlorobenzyl)-10-(hydroxymethyl)-7-methyl-3-((6-methylpyridin-2-yl)methyl)-1,6,9,12-tetraazabicyclo[11.3.1]heptadecane-2,5,8,11-tetraone]",0.556 nM,105.9%
"C[C@H]1C(=O)N[C@@H](CO)C(=O)N[C@@]2(Cc3ccc(Cl)cc3)CCCN(C2)C(=O)[C@H](CC2CC2)CC(=O)N1Cc1ccc(Cl)cc1Oc1ccc(-c2cnc(CN(C)C)n2C)cc1 [Compound 42, (3R, 7S, 10S, 13R)-6-(4-chloro-2-(4-(2-((dimethylamino)methyl)-1-methyl-1H-imidazol-5-yl)phenoxy)benzyl)-13-(4-chlorobenzyl)-3-(cyclopropylmethyl)-10-(hydroxymethyl)-7-methyl-1,6,9,12-tetraazabicyclo[11.3.1]heptadecone-2,5,8,11-tetraone]",0.596 nM,108.3%
"C[C@H]1C(=O)N[C@@H](CO)C(=O)N[C@@]2(Cc3ccc(Cl)cc3)CCCN(C2)C(=O)[C@H](Cc2ccccc2)CC(=O)N1Cc1ccc(Cl)cc1Oc1ccc(-c2cnc(CN(C)C)n2C)c(F)c1 [Compound 43, (3R, 7S, 10S, 13R)-3-benzyl-6-(4-chloro-2-(4-(2-((dimethylamino)methyl)-1-methyl-1H-imidazol-5-yl)-3-fluorophenoxy)benzyl)-13-(4-chlorobenzyl)-10-(hydroxymethyl)-7-methyl-1,6,9,12-tetraazabicyclo[11.3.1]heptadecane-2,5,8,11-tetraone]",0.405 nM,110.0%
COC[C@@H]1NC(=O)[C@H](C)N(Cc2ccc(Cl)cc2Oc2ccc(-c3cnc(CN(C)C)n3C)cc2)C(=O)C[C@@H](Cc2cccc(=O)n2C)C(=O)N2CCC[C@@](Cc3ccc(Cl)cc3)(C2)NC1=O [Compound 44],1.18 nM,105.2%
"COC[C@@H]1NC(=O)[C@H](C)N(Cc2c(F)cc(Cl)cc2Oc2ccc(-c3cnc(CNC4CCC4)n3C)cc2)C(=O)C[C@@H](CC(F)(F)F)C(=O)N2CCC[C@@](Cc3ccc(Cl)cc3)(C2)NC1=O [Compound 45, (3S,7S,10S,13R)-6-(4-Chloro-2-(4-(2-((cyclobutylamino)methyl)-1-methyl-1H-imidazol-5-yl)phenoxy)-6-fluorobenzyl)-13-(4-chlorobenzyl)-10-(methoxymethyl)-7-methyl-3-(2,2,2-trifluoroethyl)-1,6,9,12-tetraazabicyclo[11.3.1]heptadecane-2,5,8,11-tetraone]",0.816 nM,103.7%
"C[C@H]1C(=O)N[C@@H](CO)C(=O)N[C@@]2(Cc3ccc(Cl)cc3)CCCN(C2)C(=O)[C@H](Cc2c(F)cc(F)cc2F)CC(=O)N1Cc1ccc(Cl)cc1Oc1ccc(-c2cnc(CN(C)C)n2C)cc1 [Compound 46, (3R, 7S, 10S, 13R)-6-(4-chloro-2-(4-(2-((dimethylamino)methyl)-1-methyl-1H-imidazol-5-yl)phenoxy)benzyl)-13-(4-chlorobenzyl)-10-(hydroxymethyl)-7-methyl-3-(2,4,6-trifluorobenzyl)-1,6,9,12-tetraazabicyclo[11.3.1]heptadecane-2,5,8,11-tetraone]",0.568 nM,112.3%
"C[C@H]1C(=O)N[C@@H](CO)C(=O)N[C@@]2(Cc3ccc(Cl)cc3)CCCN(C2)C(=O)[C@H](Cc2cccnc2)CC(=O)N1Cc1ccc(Cl)cc1Oc1ccc(-c2cnc(CN3CCOCC3)n2C)cc1.Cl [Compound 47, (3R, 7S, 10S, 13R)-6-(4-chloro-2-(4-(1-methyl-2-(morpholinomethyl)-1H-imidazol-5-yl)phenoxy)benzyl)-13-(4-chlorobenzyl)-10-(hydroxymethyl)-7-methyl-3-(pyridin-3-ylmethyl)-1,6,9,12-tetraazabicyclo[11.3.1]heptadecane-2,5,8,11-tetraone]",0.82 nM,97.0%
"C[C@H]1C(=O)N[C@@H](CO)C(=O)N[C@@]2(Cc3ccc(Cl)cc3)CCCN(C2)C(=O)[C@H](Cc2ccc(F)c(F)c2F)CC(=O)N1Cc1c(F)cc(Cl)cc1Oc1ccc(-c2cnc(CN(C)C)n2C)cc1 [Compound 48, (3R, 7S, 10S, 13R)-6-(4-chloro-2-(4-(2-((dimethylamino)methyl)-1-methyl-1H-imidazol-5-yl)phenoxy)-6-fluorobenzyl)-13-(4-chlorobenzyl)-10-(hydroxymethyl)-7-methyl-3-(2,3,4-trifluorobenzyl)-1,6,9,12-tetraazabicyclo[11.3.1]heptadecane-2,5,8,11-tetraone]",0.596 nM,102.8%
"C[C@H]1C(=O)N[C@@H](CO)C(=O)N[C@@]2(Cc3ccc(Cl)cc3)CCCN(C2)C(=O)[C@H]([C@@H]2CCc3ccccc32)CC(=O)N1Cc1c(F)cc(Cl)cc1Oc1ccc(-c2cnc(CN(C)C)n2C)cc1 [Compound 49, (3S, 7S, 10S, 13R)-6-(4-chloro-2-(4-(2-((dimethylamino)methyl)-1-methyl-1H-imidazol-5-yl)phenoxy)-6-fluorobenzyl)-13-(4-chlorobenzyl)-3-((S)-2,3-dihydro-1H-inden-1-yl)-10-(hydroxymethyl)-7-methyl-1,6,9,12-tetraazabicyclo[11.3.1]heptadecane-2,5,8,11-tetraone]",0.631 nM,102.2%
"C[C@H]1C(=O)N[C@@H](CO)C(=O)N[C@@]2(Cc3ccc(Cl)cc3)CCCN(C2)C(=O)[C@H](Cc2ccccc2)CC(=O)N1Cc1ccc(Cl)cc1Oc1ccc(-c2cnc(CN(C)C)n2C)cc1 [Compound 50, (3R,7S,10S,13R)-3-Benzyl-6-(4-chloro-2-(4-(2-((dimethylamino)methyl)-1-methyl-1H-imidazol-5-yl)phenoxy)benzyl)-13-(4-chlorobenzyl)-10-(hydroxymethyl)-7-methyl-1,6,9,12-tetraazabicyclo[11.3.1]heptadecane-2,5,8,11-tetraone]",0.51 nM,108.7%
"CCC[C@@H]1CC(=O)N(Cc2c(F)cc(Cl)cc2Oc2ccc(-c3cnc(CN(C)C)n3C)cc2)[C@@H](C)C(=O)N[C@@H](CO)C(=O)N[C@@]2(Cc3ccc(Cl)cc3)CCCN(C2)C1=O [Compound 51, (3R, 7S, 10S, 13R)-6-(4-chloro-2-(4-(2-((dimethylamino)methyl)-1-methyl-1H-imidazol-5-yl)phenoxy)-6-fluorobenzyl)-13-(4-chlorobenzyl)-10-(hydroxymethyl)-7-methyl-3-propyl-1,6,9,12-tetraazabicyclo[11.3.1]heptadecane-2,5,8,11-tetraone]",1.12 nM,101.3%
"COC[C@@H]1NC(=O)[C@H](C)N(Cc2ccc(Cl)cc2Oc2ccc(-c3cnc(CN(C)C)n3C)nc2)C(=O)C[C@@H](Cc2ccccc2)C(=O)N2CCC[C@@](Cc3ccc(Cl)cc3)(C2)NC1=O [Compound 52, (3R, 7S, 10S, 13R)-3-benzyl-6-(4-chloro-2-((6-(2-((dimethylamino)methyl)-1-methyl-1H-imidazol-5-yl)pyridin-3-yl)oxy)benzyl)-13-(4-chlorobenzyl)-10-(methoxymethyl)-7-methyl-1,6,9,12-tetraazabicyclo[11.3.1]heptadecane-2,5,8,11-tetraone]",0.61 nM,112.5%

# Reference: US11813306B2, “Cyclic tetramer compounds as proprotein convertase subtilisin/kexin type 9 (PCSK9) inhibitors for the treatment of metabolic disorders” (NOVARTIS AG, priority 2018, dated 2023)
